# Experimental data published in patent publication US9238797B2, “Method for production of pluripotent stem cell” (TAKARA BIO INC., priority 2008, dated 2016).
# Experiments:
# Format in all cases: cell-based
# [1] = system: human adult skin fibroblast; assay: iPS cell colony induction, standing infecting method, Retronectin versus Native fibronectin (Example 21); conditions: virus 10-fold dilution, standing infection, 27th day of culture, N=3
# Method: Using a plate coated with Retronectin and a plate coated with Native fibronectin, gene transfer was carried out, and pluripotent stem cell induction was carried out. In addition, as the plate, a plate made in the following Example 21-(1), and a marketed product of a 35 mm petri dish coated with Retronectin in advance (T110A manufactured by TAKARA BIO INC.), and a marketed product of a 35 mm petri dish coated with Native fibronectin in advance (354457 manufactured by FALCON) were used.
# According to the same manner as that of Example 1-(1), immobilization of Retronectin on a culture plate was carried out, provided that, as a culturing container, a non-treatment 35 mm petri dish (manufactured by IWAKI CO., LTD.) was used. In addition, petri dishes coated with Retronectin and Native fibronectin in advance which are marketed products (hereinafter, also described as Retronectin dish and fibronectin dish) were not subjected to these immobilization operations.
# The virus solutions prepared in Preparation Example 2 were mixed at an equal amount in a combination of Table 27, and diluted 10-fold with 10F-DMEM, each 2 mL was added to the Retronectin-immobilized culturing petri dish prepared in Example 21-(1), or the petri dish coated with Retronectin or Native fibronectin in advance, and this was allowed to stand in a CO2 incubator at 32° C. for 4 to 6 hours. […]
# human skin fibroblast [2] = assay: iPS cell colony number, Retronectin method versus polybrene method (Example 19); conditions: for iPS cell colony number: 28th day of culture
# Method: As an index showing an existence rate of a cell in which each retrovirus vector together with a gene encoding a nuclear reprogramming factor (iPS cell inducing factor) was inserted, gene transfer of an AcGFP1 gene was carried out, and a pluripotent stem cell (iPS cell) induction efficiency and an AcGFP1 positive cell rate, in a gene transfer method with Retronectin (Retronectin method) and a gene transfer method with polybrene (polybrene method) were compared. In addition, regarding partial condition, quantitation of a copy number of a retrovirus vector inserted into a genome was carried out, and comparison of a copy number and a pluripotent stem cell (iPS cell) induction efficiency was carried out.
# The virus solutions prepared in Preparation Example 2 and Preparation Example 3 were mixed at an equal amount in a combination of Table 24, the solution in which the virus solution was diluted 10-fold and 100-fold with 10F-DMEM was prepared regarding the condition A, and the solution in which the virus solution was diluted 10-fold was prepared regarding the condition B, and these were used in gene transfer. Gene transfer was carried out according to the same manner as that of Example 7-(2), provided that 1 mL of PSB was used for washing a plate with PBS in the Retronectin method, the cell number used in infection by the Retronectin method and the polybrene method was 4×10^4 cells/well, and a retrovirus vector solution was 1 mL/well.
# According to the same manner as that of Example 10-(4), seeding of the gene-introduced cell on a feeder cell was carried out, provided that an AcGFP1 positive cell rate was measured with a flow cytometer using remaining cells which were not used in seeding on the feeder cell.
# According to the same manner as that of Example 10-(5), culturing on the feeder cell was carried out, provided that cells were recovered from a part of wells under the condition A on the 11th day of culture, genome extraction was carried out, and the inserted number of the retrovirus vector was quantitated.
# [3] = system: mouse embryonic fibroblast; MEF; assay: Efficiency of introducing a retrovirus vector into MEF, AcGFP1 positive cell rate (Example 23); conditions: four days after gene transfer
# Method: An efficiency of introducing a gene into MEF using a retrovirus vector was compared between a Retronectin method and a polybrene method.
# According to the same manner as that of Example 1-(1), immobilization of Retronectin on a culture plate was carried out, provided that, as a plate on which Retronectin is coated, a non-treatment 12-well plate (manufactured by Becton, Dickinson and Company) was used, and each 1 mL of a Retronectin solution (25 μg/mL) was added to each well.
# According to the same manner as that of Example 19-(2) and (3), gene transfer was carried out. The retrovirus vector was prepared according to the same manner as that of Preparation Example 3, and DON-eco-AcGFP1 made using pE-Eco plasmid (manufactured by TAKARA BIO INC.) in place of pE-Ampho plasmid was used. Each of the prepared retrovirus vector as a stock solution, and solutions obtained by diluting the stock solution by each 10-fold to 100000-fold with 10F-DMEM was used for infection. In addition, as a target cell, MEF (manufactured by Millipore) was used.
# On the next day of gene transfer, the medium was exchanged with 10F-DMEM.
# Four days after a gene transfer operation, the cells were recovered, and an AcGFP1 positive cell rate was measured with a flow cytometer.
# human skin fibroblast [4] = assay: iPS cell colony induction, gene transfer with Retronectin or polybrene once or two times (Example 7); conditions: 28th day of culture, N=2
# Method: Regarding gene transfer with a retrovirus vector, introduction was carried out once or two times using Retronectin or polybrene, and induction of a pluripotent stem cell was carried out, followed by comparison.
# Regarding gene transfer with Retronectin, according to the same manner as that of Example 4-(2), gene transfer was carried out. Gene transfer with polybrene was carried out as follows. […] Each 700 μL of the virus solutions prepared by Preparation Example 2 were mixed in a combination of the condition C of Table 3, polybrene was added to a final concentration of 8 μg/mL to prepare a retrovirus vector mixed solution, the supernatant was removed from the plate on which the cell had been cultured, this retrovirus vector mixed solution was added, and culturing was initiated (day 0 of culturing).
# Gene transfer with polybrene was carried out according to the same manner as that of gene transfer with polybrene of Example 7-(2). That is, the supernatant was removed from the plate on which the cell had been cultured, a retrovirus vector mixed solution prepared similarly was added, and culturing was continued.
# On the sixth day of culture, according to the same manner as that of Example 5-(4), the gene-introduced cell was seeded on a feeder cell, and culturing was continued, provided that the gene-introduced cell was seeded by each 1.75×10^4 cells.
# The number in the Table indicates an average value of N=2.
substance,measurement,setting,value
"Retronectin: fragment of fibronectin having a heparin-II binding region (registered trademark, CH-296, TAKARA BIO INC.)",Number of iPS cell colonies,"[1]; Condition A: DON5-am-OCT4-IR-SOX2, DON5-am-KLF4",52.0
same,Number of iPS cell colonies,"[1]; Condition B: DON5-am-OCT4-IR-SOX2, DON5-am-LIN28-IR-NANOG, DON5-am-KLF4",97.3
same,iPS cell colony number higher in the Retronectin method,"human skin fibroblast [2]; Condition A, Retronectin method 100-fold dilution versus polybrene method 10-fold dilution",9 fold
same,"difference in the iPS cell colony number, Retronectin method versus polybrene method","human skin fibroblast [2]; Condition A, retrovirus 10-fold dilution",≥ 3 fold
same,iPS cell colony number higher in the Retronectin method,"human skin fibroblast [2]; Condition B, versus polybrene method",2 fold
same,iPS cell colony number,"human skin fibroblast [2]; vector combination Condition A, virus 10-fold dilution",10.0
same,iPS cell colony number,"human skin fibroblast [2]; vector combination Condition A, virus 100-fold dilution",27.0
same,iPS cell colony number,"human skin fibroblast [2]; vector combination Condition B, virus 10-fold dilution",11.5
same,Positive cell rate,[3]; Virus concentration 0.00001,5.9%
same,Positive cell rate,[3]; Virus concentration 0.0001,15.3%
same,Positive cell rate,[3]; Virus concentration 0.001,41.3%
same,Positive cell rate,[3]; Virus concentration 0.01,64.6%
same,Positive cell rate,[3]; Virus concentration 0.1,80.3%
same,Positive cell rate,[3]; Virus concentration 1.0,84.1%
same,Number of iPS cell colonies,"human skin fibroblast [4]; gene transfer once, with protein starvation treatment",25.5
same,Number of iPS cell colonies,"human skin fibroblast [4]; gene transfer once, without protein starvation treatment",9.5
same,Number of iPS cell colonies,"human skin fibroblast [4]; gene transfer two times, with protein starvation treatment",30.0
same,Number of iPS cell colonies,"human skin fibroblast [4]; gene transfer two times, without protein starvation treatment",26.0
